Molecules are shown by their SMILES. The source made the active and inactive calls.

In general, IC50 refers to the concentration that inhibits the measured activity by half. By AC50 is commonly meant the concentration at which the activity in the assay is half-maximal. What is called EC50 is the concentration that produces a half-maximal response.

The nature of assay [1]: M. tuberculosis growth inhibition, HTS (AID 449762). Format: functional.
A short description of assay [2]: microbe, parasite or virus in culture. The class given is functional. To be noted: Mycobacterium tuberculosis.
The target of assay [3] is Estrogen receptor (Homo sapiens, UniProt P03372).
Assay [4] has as its target T1, Estrogen receptor beta (Homo sapiens, UniProt Q92731).
The target of assay [5] is T1, Estrogen receptor beta. Kind of assay: ERβ–SRC-3 coactivator interaction inhibitors, confirmation, orthogonal assay, biochemical, ELISA, streptavidin-HRP readout (AID 1060).
For assay [6], the target named is Cytochrome P450 3A4 (Homo sapiens, UniProt P08684). Particulars: Potency.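 Also: confirmatory qHTS run detecting inhibitors and substrates of CYP3A4.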
Assay [7] has as its system Streptococcus. Description: Luminescence Microorganism-Based Dose Response Follow up to Identify Compounds Cytotoxic to Streptococcus. [Related pubchem assays: 1677 (Project Summary), 1915, 1914, 1902 (Retest at Dose), 1900 (Counter Screen), 1662 (Primary HTS)]. Format: functional, organism-based.
For assay [8], the target named is Glyceraldehyde-3-phosphate dehydrogenase (Homo sapiens, UniProt P04406).
In assay [9] the target is T2, Bcl-2-related protein A1 (Mus musculus, UniProt Q07440).
T2 sequence (Q07440 whole entry): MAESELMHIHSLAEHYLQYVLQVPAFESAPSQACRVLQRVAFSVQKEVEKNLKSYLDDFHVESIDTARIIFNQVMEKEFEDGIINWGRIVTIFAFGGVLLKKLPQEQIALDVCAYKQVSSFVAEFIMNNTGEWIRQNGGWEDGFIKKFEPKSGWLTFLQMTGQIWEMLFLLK
Description: Bfl-1 inhibitors blocking BH3 peptide binding, confirmation, biochemical, TR-FRET, mouse Bfl-1 (AID 621).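 Also: TR-FRET binding of GST-Bfl-1 to FITC-labelled Bid peptide via terbium antibody.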

The target of assay [10] is T2, Bcl-2-related protein A1. Description: Bfl-1 binding inhibitors, SAR follow-up, biochemical, fluorescence polarization (AID 1070). (In general: Polarisation of emitted light reports the rotation of a fluorescent probe.)
In assay [11] the test system is Streptococcus sp. 'group A'. Description: growth inhibition of control SK(-) GAS strain, dose response, counter-screen for streptokinase expression inhibitor project, luminescence, kanamycin, BacTiterGlo, confirmation (AID 1900). The class given is functional, organism-based. On the technique in general: The purpose of a counterscreen is to sort out artefacts and off-target activity.

Assay [12] concerns the target T3, Streptokinase A (Streptococcus pyogenes serotype M1, UniProt P10520).
T3 sequence (P10520 whole entry): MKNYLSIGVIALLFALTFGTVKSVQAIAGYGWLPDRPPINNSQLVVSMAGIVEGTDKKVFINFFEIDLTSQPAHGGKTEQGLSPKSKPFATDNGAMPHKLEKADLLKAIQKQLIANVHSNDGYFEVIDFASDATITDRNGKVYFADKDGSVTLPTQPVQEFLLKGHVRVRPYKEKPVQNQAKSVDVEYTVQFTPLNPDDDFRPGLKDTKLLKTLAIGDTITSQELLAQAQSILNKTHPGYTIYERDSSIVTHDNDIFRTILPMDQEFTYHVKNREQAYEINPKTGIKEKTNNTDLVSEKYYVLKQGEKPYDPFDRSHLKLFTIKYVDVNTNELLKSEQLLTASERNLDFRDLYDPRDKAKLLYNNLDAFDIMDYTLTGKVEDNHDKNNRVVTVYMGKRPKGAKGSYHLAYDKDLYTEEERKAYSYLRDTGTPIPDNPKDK
Kind of assay: S. pyogenes streptokinase expression inhibitors, potency, dose response, plasminogen activation absorbance, OD405 (AID 1914).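 Also: secreted streptokinase activity via plasminogen activation per viability signal from cell pellet.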 Format: functional, Streptococcus pyogenes M1 GAS.

For assay [13], the system named is Streptococcus. Kind of assay: Group A Streptococcus viability loss, dose response, counter-screen for streptokinase expression inhibitor project, luminescence, BacTiterGlo (AID 1915).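 Also: potency for reduction of bacterial viability or growth.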 Format: functional, organism-based.
The target of assay [14] is Luciferin 4-monooxygenase (Photinus pyralis, UniProt P08659). Description: Counter Screen for Luciferase-based Assay Positives. [Related pubchem assays: 620, 618, 411 ].
For assay [15], the system named is HT-1080. Description: cytotoxicity in HT1080 fibrosarcoma cells, cell-based, fluorescence readout (AID 620). Particulars: Homo sapiens. The class given is functional.
Assay [16] in a line: HEp-2 cell cytotoxicity, dose response, cytotoxicity control for RSV inhibitor project, HTS (AID 2410). Format: functional. To be noted: human respiratory syncytial virus.
Assay [17] is described as follows: cells.
The target in assay [18] is Vasopressin V1a receptor (Homo sapiens, UniProt P37288). Kind of assay: Counterscreen for Oxytocin Receptor (OXTR) agonists: Fluorescence-based cell-based high throughput dose response assay to identify agonists of the vasopressin 1 receptor (V1R). [Related pubchem assays: 2435 (Primary screen (OXTR agonists in singlicate)), 434991 (Counterscreen (V1R agonists in triplicate)), 2482 (Summary (OXTR agonists)) …. The class given is functional.

The target of assay [19] is Oxytocin receptor (Homo sapiens, UniProt P30559). Description: Fluorescence-based cell-based high throughput dose response assay for agonists of the Oxytocin Receptor (OXTR). [Related pubchem assays: 2435 (Primary screen (OXTR agonists in singlicate)), 434991 (Counterscreen (V1R agonists in triplicate)), 2482 (Summary (OXTR agonists)), 434963 (Confirmation screen (OXTR agonists in triplicate))]. Format: functional.

Assay [20] addresses T4, Microphthalmia-associated transcription factor (Homo sapiens, UniProt O75030).
T4 sequence (O75030 whole entry): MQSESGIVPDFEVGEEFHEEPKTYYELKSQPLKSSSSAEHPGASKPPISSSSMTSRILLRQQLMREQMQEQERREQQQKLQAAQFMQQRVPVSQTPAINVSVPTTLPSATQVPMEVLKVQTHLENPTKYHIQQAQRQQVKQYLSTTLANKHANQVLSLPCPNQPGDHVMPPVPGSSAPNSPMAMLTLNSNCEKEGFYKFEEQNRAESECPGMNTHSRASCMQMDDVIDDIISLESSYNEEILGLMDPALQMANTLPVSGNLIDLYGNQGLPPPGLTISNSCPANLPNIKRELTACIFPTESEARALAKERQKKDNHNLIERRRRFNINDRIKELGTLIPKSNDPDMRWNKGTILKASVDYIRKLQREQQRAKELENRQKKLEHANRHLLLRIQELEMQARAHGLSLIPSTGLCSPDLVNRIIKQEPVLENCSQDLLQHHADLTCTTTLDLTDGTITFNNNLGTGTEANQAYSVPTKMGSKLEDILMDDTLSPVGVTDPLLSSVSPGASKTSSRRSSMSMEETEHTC
Kind of assay: TRPM1 promoter luciferase signal decrease, dose response, MITF inhibitor project, cell-based, SK-MEL-5, cherry-picked, set 3 (AID 493073).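 Also: SK-MEL-5 melanoma cells with luciferase driven by the MITF target TRPM1 promoter.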 Format: functional.

Assay [21] relates to A-375. Kind of assay: MITF: Counter assay: A375 proliferation Measured in Cell-Based System Using Plate Reader - 2084-03_Inhibitor_Dose_DryPowder_Activity. [Related pubchem assays (depositor defined):AID488944]. Format: functional. Particulars: Homo sapiens.
Assay [22] can be described thus: miR-122 activators in hepatoma reporter cells, dose response, cell-based, Huh7 psiCHECK-miR122, Renilla luciferase, cherry-picked (AID 651956).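 Also: huh7 hepatoma cells stably carrying a psiCHECK-2 miR-122 sensor plasmid; renilla luciferase signal reporting endogenous miR-122 activity after 48 h compound exposure.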 Format: functional.
Assay [23] is described as follows: HEK293T cytotoxicity, dose response, cytotoxicity control for miR-122 modulator project, cell-based, activator set, cherry-pick (AID 720690).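 Also: HEK293T human cells scored for general mammalian cytotoxicity.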 The class given is functional.
For assay [24], the target named is Aryl hydrocarbon receptor (Homo sapiens, UniProt P35869). Kind of assay: Luminescence-based cell-based high throughput dose response assay for activators of the Aryl Hydrocarbon Receptor (AHR). [Related pubchem assays: 2796 (Primary screen (AHR activators in singlicate)), 2845 (Confirmation screen (AHR activators in triplicate)), 434939 (Counterscreen (PXR activators in triplicate)), 2804 (Summary (AHR activators))]. The class given is ADME.
Sequence of Aryl hydrocarbon receptor (P35869 whole entry): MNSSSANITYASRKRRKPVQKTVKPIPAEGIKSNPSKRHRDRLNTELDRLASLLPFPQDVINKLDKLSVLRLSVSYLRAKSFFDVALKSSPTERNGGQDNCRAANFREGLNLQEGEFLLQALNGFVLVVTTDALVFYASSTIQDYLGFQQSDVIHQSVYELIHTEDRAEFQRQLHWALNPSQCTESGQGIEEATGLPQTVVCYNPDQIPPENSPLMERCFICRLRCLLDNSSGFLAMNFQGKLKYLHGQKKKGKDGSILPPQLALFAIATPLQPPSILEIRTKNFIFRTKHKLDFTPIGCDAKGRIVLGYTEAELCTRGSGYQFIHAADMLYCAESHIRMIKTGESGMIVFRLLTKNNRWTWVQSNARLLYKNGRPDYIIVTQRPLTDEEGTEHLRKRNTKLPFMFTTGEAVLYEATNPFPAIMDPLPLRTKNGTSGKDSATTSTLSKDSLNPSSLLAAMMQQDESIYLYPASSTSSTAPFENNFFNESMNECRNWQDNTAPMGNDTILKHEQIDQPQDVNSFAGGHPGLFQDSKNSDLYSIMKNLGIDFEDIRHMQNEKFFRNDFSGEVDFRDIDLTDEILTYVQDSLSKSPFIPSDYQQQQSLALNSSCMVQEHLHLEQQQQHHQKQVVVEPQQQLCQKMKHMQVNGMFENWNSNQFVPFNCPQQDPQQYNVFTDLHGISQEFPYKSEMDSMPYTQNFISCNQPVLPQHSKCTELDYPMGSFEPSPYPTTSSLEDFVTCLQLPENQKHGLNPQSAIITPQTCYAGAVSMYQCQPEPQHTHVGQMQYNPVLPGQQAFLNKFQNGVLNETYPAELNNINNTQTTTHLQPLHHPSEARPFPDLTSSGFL

Sequence of Luciferin 4-monooxygenase (P08659 whole entry): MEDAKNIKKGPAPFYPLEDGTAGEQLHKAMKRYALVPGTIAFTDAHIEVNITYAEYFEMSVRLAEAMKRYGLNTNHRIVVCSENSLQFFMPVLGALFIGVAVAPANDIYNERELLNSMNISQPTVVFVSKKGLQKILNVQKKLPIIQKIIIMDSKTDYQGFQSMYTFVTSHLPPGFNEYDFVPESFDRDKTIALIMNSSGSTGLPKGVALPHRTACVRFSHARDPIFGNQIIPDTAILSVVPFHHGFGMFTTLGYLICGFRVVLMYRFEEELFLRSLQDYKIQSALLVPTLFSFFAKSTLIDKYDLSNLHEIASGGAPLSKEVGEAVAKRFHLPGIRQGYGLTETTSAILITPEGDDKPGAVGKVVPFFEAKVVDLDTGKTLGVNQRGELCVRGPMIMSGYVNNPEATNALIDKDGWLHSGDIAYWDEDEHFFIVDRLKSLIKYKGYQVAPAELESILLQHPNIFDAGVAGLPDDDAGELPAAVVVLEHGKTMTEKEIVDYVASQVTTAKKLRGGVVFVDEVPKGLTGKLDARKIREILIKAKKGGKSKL
Sequence of Cytochrome P450 3A4 (P08684 whole entry): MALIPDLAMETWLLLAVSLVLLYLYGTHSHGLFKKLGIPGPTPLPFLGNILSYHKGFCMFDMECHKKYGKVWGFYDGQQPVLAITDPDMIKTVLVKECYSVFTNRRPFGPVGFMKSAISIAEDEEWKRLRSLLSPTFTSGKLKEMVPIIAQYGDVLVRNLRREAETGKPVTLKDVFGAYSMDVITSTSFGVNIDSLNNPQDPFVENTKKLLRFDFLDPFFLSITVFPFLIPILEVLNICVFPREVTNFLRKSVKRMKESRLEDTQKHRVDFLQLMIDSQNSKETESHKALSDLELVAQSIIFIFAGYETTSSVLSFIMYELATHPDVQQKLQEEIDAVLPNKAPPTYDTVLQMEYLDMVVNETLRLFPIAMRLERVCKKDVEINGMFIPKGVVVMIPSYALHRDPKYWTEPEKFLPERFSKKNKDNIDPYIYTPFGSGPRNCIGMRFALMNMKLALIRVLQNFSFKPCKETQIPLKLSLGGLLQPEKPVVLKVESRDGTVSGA
T1 sequence (Q92731 whole entry): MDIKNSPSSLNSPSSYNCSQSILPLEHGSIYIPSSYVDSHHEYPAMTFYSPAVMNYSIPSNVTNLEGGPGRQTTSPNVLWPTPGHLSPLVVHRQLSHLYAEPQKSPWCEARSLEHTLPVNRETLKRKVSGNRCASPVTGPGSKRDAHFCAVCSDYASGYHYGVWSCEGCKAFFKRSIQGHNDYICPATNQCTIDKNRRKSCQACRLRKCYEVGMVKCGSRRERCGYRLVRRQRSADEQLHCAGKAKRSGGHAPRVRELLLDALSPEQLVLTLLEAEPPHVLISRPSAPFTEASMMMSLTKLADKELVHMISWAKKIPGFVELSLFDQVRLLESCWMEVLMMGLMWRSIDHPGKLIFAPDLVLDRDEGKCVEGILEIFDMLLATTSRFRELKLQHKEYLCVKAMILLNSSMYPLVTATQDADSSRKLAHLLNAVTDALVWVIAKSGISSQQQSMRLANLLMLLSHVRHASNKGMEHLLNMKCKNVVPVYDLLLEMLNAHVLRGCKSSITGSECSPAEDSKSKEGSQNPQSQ
Sequence of Glyceraldehyde-3-phosphate dehydrogenase (P04406 whole entry): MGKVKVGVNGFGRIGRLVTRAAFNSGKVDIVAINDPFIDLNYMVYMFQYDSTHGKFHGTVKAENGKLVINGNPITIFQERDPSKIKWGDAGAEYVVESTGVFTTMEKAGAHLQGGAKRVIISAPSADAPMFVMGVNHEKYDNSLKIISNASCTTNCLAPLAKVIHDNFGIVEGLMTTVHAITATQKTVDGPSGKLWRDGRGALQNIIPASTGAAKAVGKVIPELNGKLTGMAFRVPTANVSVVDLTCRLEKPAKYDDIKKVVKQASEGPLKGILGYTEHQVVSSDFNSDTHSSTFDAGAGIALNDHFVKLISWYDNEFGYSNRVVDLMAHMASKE
Sequence of Estrogen receptor (P03372 whole entry): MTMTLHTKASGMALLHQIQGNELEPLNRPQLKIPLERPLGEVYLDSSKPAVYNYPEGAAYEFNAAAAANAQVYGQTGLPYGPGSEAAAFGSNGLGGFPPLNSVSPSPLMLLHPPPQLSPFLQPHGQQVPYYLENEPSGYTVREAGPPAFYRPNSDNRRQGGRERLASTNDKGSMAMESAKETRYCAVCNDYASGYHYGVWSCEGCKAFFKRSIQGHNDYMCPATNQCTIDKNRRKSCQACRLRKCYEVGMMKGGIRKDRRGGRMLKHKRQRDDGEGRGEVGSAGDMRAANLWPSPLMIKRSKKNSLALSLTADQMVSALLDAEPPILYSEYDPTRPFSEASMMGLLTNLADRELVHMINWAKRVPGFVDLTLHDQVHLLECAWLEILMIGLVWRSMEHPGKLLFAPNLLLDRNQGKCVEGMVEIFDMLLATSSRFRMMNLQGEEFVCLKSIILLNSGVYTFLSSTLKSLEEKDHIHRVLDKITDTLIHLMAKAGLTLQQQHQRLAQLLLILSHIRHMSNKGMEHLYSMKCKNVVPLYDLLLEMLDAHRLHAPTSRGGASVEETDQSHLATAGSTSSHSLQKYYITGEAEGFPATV
Sequence of Vasopressin V1a receptor (P37288 whole entry): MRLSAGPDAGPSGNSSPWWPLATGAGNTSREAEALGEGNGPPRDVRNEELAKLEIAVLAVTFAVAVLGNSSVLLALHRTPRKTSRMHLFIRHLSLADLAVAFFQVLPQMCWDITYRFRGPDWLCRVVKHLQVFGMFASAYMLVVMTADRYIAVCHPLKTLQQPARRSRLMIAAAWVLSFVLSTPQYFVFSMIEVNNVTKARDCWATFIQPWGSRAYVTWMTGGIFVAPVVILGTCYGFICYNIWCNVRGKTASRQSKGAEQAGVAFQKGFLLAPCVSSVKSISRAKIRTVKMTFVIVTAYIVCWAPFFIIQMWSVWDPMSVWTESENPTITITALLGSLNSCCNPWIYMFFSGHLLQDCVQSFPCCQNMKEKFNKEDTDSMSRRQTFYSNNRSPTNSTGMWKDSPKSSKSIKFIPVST
Sequence of Oxytocin receptor (P30559 whole entry): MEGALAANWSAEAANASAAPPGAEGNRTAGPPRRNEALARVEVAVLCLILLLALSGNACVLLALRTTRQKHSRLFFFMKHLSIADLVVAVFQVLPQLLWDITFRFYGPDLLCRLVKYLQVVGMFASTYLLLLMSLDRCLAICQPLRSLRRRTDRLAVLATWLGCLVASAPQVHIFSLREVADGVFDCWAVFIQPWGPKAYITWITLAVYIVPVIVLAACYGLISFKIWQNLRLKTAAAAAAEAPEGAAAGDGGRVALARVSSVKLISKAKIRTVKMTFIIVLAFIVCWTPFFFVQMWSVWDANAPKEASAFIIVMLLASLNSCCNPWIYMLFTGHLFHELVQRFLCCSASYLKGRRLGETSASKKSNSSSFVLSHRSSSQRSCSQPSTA

Regarding `CCCCCCCC(=O)N/N=C(/C)c1c(O)cc(C)oc1=O`, in assay [1], the IC50 was > 100 µM (active). Further, in assay [2], the CC50 was > 40 µM (active).
Consider `CC(=N)/C(C#N)=C(/O)CSc1nnc(-c2ccc(OC(F)F)cc2)o1`, for which the IC50 is 46.6 µM (not active) in assay [3], 9.26 µM (active) in [4] and 18.6 µM (not active) in [5].
In the case of `CCOC(=O)CC(SP(=O)(OC)OC)C(=O)OCC` (stereo not drawn), the AC50 in assay [6] is 25.1 µM (inconclusive).
In the case of `Cc1ccc(C(=O)C(c2ccccc2)N2Cc3ccccc3C2=N)cc1` (stereo not drawn), the EC50 in [7] was 33.5 µM (active).
Consider `O=C1C(Cl)=C(N2CCN(Cc3ccccc3)CC2)C(=O)N1c1ccc(Cl)c(Cl)c1`, for which the IC50 was > 100 µM (not active) in assay [8], 1.64 µM (active) in [9] and 1.62 µM (active) in [10].
Regarding `Cc1cc(-c2ccccc2)nc(S(C)(=O)=O)n1`, the IC50 in assay [8], in assay [9] and in assay [10] was > 100 µM (not active) each time.
`CCN(CC)C(=S)SCC(=O)Nc1nc(-c2ccccc2)c(-c2ccccc2)o1`: the half-maximal effective concentration (EC50) is 7.26 µM (active) in [11], > 500 µM (not active) in assay [7], 8.54 µM (active) in assay [12] and > 150 µM (not active) in [13].
Take `COc1ccc(-n2ncc3c(NCC(C)C)ncnc32)cc1`: the EC50 in assay [14] is 1.17 µM (active); in [15] it was > 50 µM (not active).
Regarding `Cn1cnnc1Sc1cc(N2CCN(S(=O)(=O)c3ccc(Cl)c(Cl)c3)CC2)ccc1[N+](=O)[O-]`, the CC50 in assay [16] is > 50 µM (active). Also, the half-maximal inhibitory concentration (IC50) in assay [17] was 10.7 µM (active).
As for `N=c1n(CC(=O)c2ccc(Br)s2)c2ccccc2n1Cc1ccccc1`, the results for the EC50 in [18] and in assay [19] were 15.1 µM (not active) and 14.8 µM (not active), respectively. Besides, the AC50 was 7.34 µM (active) in [20], 19.7 µM (active) in assay [21], 10.9 µM (active) in [22] and 11.4 µM (active) in assay [23].
For `Cc1ccc(/N=C/C2=C(O)C3(C)CCC2C3(C)C)cc1C` (stereo not drawn), the IC50 in assay [1] is > 100 µM (active).
As for `CC(C)=CCOc1cc2oc(=O)ccc2cc1O` [PRENYLETIN], the AC50 in assay [6] was 39.8 µM (inconclusive).
As to `CC(=O)c1ccc(NC(=O)c2cc(Cl)nc3ccccc23)cc1`, the EC50 in [24] was 1.66 µM (active).
Take `CC(=O)Nc1ccc(OC(=O)N2CCCCC2)cc1`: the EC50 in [14] was 3.67 µM (active); in assay [15], > 50 µM (not active).
As for `CN(C)c1nc(N)nc(-c2nc3ccccc3s2)n1`, the 50% effective concentration (EC50) in [24] was 0.845 µM (active).

The values are drawn from ChEMBL document CHEMBL1201862, “PubChem BioAssay data set” (2004).
